From ChEMBL document CHEMBL6087428, “Discovery of potent and selective factor XIa inhibitors incorporating triazole-based benzoic acid as novel P2' fragments: Molecular dynamics simulations and anticoagulant activity” (Eur J Med Chem, 2025)

Key:
Coagulation factor XI [1] = target: T1, Coagulation factor XI (Homo sapiens, UniProt P03951); assay: Inhibition of human Factor XIa using Boc-Glu(OBzl)-Ala-Arg-AMC assessed as AMC release preincubated for 15 mins followed by substrate addition and measured after 10 mins by microplate fluorescence reader analysis
Plasma kallikrein [2] = target: T2, Plasma kallikrein (Homo sapiens, UniProt P03952); assay: Inhibition of human PKa using H-Pro-Phe-Arg-AMC as substrate incubated for 15 mins by fluorescence reader analysis
Plasma [3] = assay: Anticoagulant activity in citrated human pooled plasma assessed as prolongation of activated partial thromboplastin time incubated for 5 mins by aPTT reagent based semi-automated coagulometric analysis; assay type: functional
Plasma [4] = assay: Anticoagulant activity in citrated human pooled plasma assessed as prolongation of prothrombin time incubated for 3 mins by PT reagent based semi-automated coagulometric analysis; assay type: functional; conditions: 0.05 h
Coagulation factor X = Coagulation factor X (Homo sapiens, UniProt P00742); assay: Inhibition of human Factor Xa using Boc-Ile-Glu-Gly-Arg-AMC as substrate incubated for 15 mins by fluorescence reader analysis
Trypsin = Trypsin (Homo sapiens, UniProt P07477+P07478+P35030); assay: Inhibition of human trypsin using Boc-Ile-Glu-Gly-Arg-AMC as substrate incubated for 15 mins by fluorescence reader analysis; assay type: protein assay
Prothrombin = Prothrombin (Homo sapiens, UniProt P00734); assay: Inhibition of human thrombin using Boc-Asp(OBzl)-Pro-Arg-AMC as substrate incubated for 15 mins by fluorescence reader analysis
Homo sapiens [5] = species: Homo sapiens; assay: Selectivity ratio of IC50 for human Factor Xa using Boc-Ile-Glu-Gly-Arg-AMC as substrate to IC50 for human Factor XIa using Boc-Glu(OBzl)-Ala-Arg-AMC
Homo sapiens [6] = species: Homo sapiens; assay: Selectivity ratio of IC50 for human trypsin using Boc-Ile-Glu-Gly-Arg-AMC as substrate to IC50 for human Factor XIa using Boc-Glu(OBzl)-Ala-Arg-AMC
Homo sapiens [7] = species: Homo sapiens; assay: Selectivity ratio of IC50 for human thrombin using Boc-Asp(OBzl)-Pro-Arg-AMC as substrate to IC50 for human Factor XIa using Boc-Glu(OBzl)-Ala-Arg-AMC
Plasma kallikrein [8] = target: T2, Plasma kallikrein; assay: Inhibition of Pka (unknown origin)
Coagulation factor XI [9] = target: T1, Coagulation factor XI; assay: Inhibition of Factor XIa (unknown origin)

T1 sequence (P03951 19-387 limits assumed): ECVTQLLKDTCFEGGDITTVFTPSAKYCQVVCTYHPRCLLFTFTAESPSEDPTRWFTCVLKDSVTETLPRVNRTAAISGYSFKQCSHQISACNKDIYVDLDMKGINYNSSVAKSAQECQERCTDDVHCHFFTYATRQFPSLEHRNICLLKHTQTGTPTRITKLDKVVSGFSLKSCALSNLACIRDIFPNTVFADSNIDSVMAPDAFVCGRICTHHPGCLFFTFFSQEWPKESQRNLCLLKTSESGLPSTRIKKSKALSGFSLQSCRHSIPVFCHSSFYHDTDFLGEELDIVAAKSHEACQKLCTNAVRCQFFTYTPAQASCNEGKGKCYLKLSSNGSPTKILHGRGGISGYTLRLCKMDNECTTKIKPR
T1 sequence (P03951 388-625 limits assumed): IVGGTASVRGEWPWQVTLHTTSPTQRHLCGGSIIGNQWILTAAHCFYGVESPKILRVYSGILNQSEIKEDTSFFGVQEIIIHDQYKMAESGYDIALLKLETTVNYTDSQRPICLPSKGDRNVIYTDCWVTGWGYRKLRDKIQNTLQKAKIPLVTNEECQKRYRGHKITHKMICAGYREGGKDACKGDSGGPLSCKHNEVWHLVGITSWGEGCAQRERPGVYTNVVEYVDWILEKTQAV
T2 sequence (P03952 20-390 limits assumed): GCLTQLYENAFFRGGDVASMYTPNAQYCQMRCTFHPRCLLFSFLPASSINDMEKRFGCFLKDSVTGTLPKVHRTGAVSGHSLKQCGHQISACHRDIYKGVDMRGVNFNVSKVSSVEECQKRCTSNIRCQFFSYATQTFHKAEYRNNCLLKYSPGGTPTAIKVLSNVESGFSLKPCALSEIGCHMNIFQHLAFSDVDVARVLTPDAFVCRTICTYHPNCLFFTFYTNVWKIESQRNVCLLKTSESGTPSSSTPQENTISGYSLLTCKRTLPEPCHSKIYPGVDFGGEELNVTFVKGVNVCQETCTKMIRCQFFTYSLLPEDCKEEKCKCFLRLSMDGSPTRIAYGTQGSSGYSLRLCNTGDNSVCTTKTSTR
T2 sequence (P03952 391-638 limits assumed): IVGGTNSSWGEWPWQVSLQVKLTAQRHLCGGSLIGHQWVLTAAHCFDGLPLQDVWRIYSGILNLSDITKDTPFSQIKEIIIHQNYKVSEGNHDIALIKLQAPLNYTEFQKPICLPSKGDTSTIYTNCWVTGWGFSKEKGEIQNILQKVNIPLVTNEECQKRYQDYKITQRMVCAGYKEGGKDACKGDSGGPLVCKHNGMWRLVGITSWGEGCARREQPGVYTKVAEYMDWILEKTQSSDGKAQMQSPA
Coagulation factor X, sequence (P00742 41-179 limits assumed): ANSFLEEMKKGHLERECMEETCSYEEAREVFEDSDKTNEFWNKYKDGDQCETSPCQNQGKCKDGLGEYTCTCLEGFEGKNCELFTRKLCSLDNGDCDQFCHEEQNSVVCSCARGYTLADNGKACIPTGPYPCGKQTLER
Coagulation factor X, sequence (P00742 235-488 limits assumed): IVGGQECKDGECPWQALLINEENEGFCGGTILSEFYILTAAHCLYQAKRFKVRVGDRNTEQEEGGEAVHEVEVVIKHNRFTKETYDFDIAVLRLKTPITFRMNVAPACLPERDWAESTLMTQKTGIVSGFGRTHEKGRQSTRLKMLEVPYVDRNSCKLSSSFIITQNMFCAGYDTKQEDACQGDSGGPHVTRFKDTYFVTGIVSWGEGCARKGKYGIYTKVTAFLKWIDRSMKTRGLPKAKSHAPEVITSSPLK

| IC50 (Coagulation factor XI [1]) | IC50 (Plasma kallikrein [2]) | Structure (SMILES) | other results |
| --- | --- | --- | --- |
| 38.7 nM | 832 nM | COc1cn(Cc2cn(-c3ccc(C(=O)O)cc3)nn2)c(=O)cc1-c1cc(Cl)ccc1-n1cc(Cl)nn1 |  |
| 1960 nM | 4840 nM | CCC(c1cn(-c2ccccc2C(=O)OC)nn1)n1cc(OC)c(-c2cc(Cl)ccc2-n2cc(Cl)nn2)cc1=O (stereo unspecified) |  |
| 21.4 nM | 683 nM | COc1cn(C(Cc2ccccc2)c2cn(-c3cn[nH]c3)nn2)c(=O)cc1-c1cc(Cl)ccc1-n1cc(Cl)nn1 (stereo unspecified) | EC1.5 (Plasma [3]): 2.64 µM; EC2 (Plasma [4]): >100 µM |
| 379 nM | 2510 nM | CCC(c1cn(-c2cn[nH]c2)nn1)n1cc(OC)c(-c2cc(Cl)ccc2-n2cc(Cl)nn2)cc1=O (stereo unspecified) |  |
| 497 nM | 9800 nM | CCC(c1cn(-c2ccccc2C(=O)O)nn1)n1cc(OC)c(-c2cc(Cl)ccc2-n2cc(Cl)nn2)cc1=O (stereo unspecified) |  |
| 84.5 nM | 655 nM | CCC(c1cn(-c2ccc(C(=O)O)cc2)nn1)n1cc(OC)c(-c2cc(Cl)ccc2-n2cc(Cl)nn2)cc1=O (stereo unspecified) | EC1.5 (Plasma [3]): 25.4 µM; IC50 (Coagulation factor X): 17400 nM; IC50 (Trypsin): 93100 nM; EC2 (Plasma [4]): >100 µM |
| 259 nM | 822 nM | CCC(c1cn(-c2cccc(C(=O)O)c2)nn1)n1cc(OC)c(-c2cc(Cl)ccc2-n2cc(Cl)nn2)cc1=O (stereo unspecified) |  |
| 186 nM | 2060 nM | COc1cn(Cc2cn(-c3cn[nH]c3)nn2)c(=O)cc1-c1cc(Cl)ccc1-n1cc(Cl)nn1 |  |
| 1020 nM | 11100 nM | COc1cn(Cc2cn(-c3ccc(Cl)nc3C)nn2)c(=O)cc1-c1cc(Cl)ccc1-n1cc(Cl)nn1 |  |
| 161 nM | 1970 nM | COC(=O)c1ccc(-n2cc(Cn3cc(OC)c(-c4cc(Cl)ccc4-n4cc(Cl)nn4)cc3=O)nn2)cc1 |  |
| 14600 nM | 87200 nM | CCC(c1cn(-c2cnn(C)c2)nn1)n1cnc(-c2cc(Cl)ccc2-n2cc(Cl)nn2)cc1=O (stereo unspecified) |  |
| 2.26 nM | 141 nM | COc1cn(C(Cc2ccccc2)c2cn(-c3ccc(C(=O)O)cc3)nn2)c(=O)cc1-c1cc(Cl)ccc1-n1cc(Cl)nn1 (stereo unspecified) | EC1.5 (Plasma [3]): 1.41 µM; IC50 (Coagulation factor X): 48200 nM; IC50 (Prothrombin): 42000 nM; IC50 (Trypsin): 26100 nM; EC2 (Plasma [4]): >100 µM |
| 288 nM | 3740 nM | COc1cn(Cc2cn(-c3cnn(C)c3)nn2)c(=O)cc1-c1cc(Cl)ccc1-n1cc(Cl)nn1 |  |
| 1.52 nM | 73.1 nM | COc1cn([C@@H](Cc2ccccc2)c2cn(-c3ccc(C(=O)O)cc3)nn2)c(=O)cc1-c1cc(Cl)ccc1-n1cc(Cl)nn1 | EC1.5 (Plasma [3]): 0.75 µM; Ratio IC50 (Homo sapiens [5]): > 30000; IC50 (Coagulation factor X): 46800 nM; IC50 (Prothrombin): 24400 nM; IC50 (Trypsin): 14100 nM; Ratio IC50 (Homo sapiens [6]): > 9000; Ratio IC50 (Homo sapiens [7]): > 16000; EC2 (Plasma [4]): >100 µM |
| 2000 nM | 19700 nM | COC(=O)c1ncccc1-n1cc(Cn2cc(OC)c(-c3cc(Cl)ccc3-n3cc(Cl)nn3)cc2=O)nn1 |  |
| 6550 nM | 23400 nM | CCC(c1cn(-c2cn[nH]c2)nn1)n1cnc(-c2cc(Cl)ccc2-n2cc(Cl)nn2)cc1=O (stereo unspecified) |  |
| 1090 nM | 15800 nM | COc1cn(Cc2cn(-c3ccc(Cl)nc3C#N)nn2)c(=O)cc1-c1cc(Cl)ccc1-n1cc(Cl)nn1 |  |
| 30.9 nM | 746 nM | COc1cn(C(Cc2ccccc2)c2cn(-c3ccccc3)nn2)c(=O)cc1-c1cc(Cl)ccc1-n1cc(C(F)(F)F)nn1 (stereo unspecified) |  |
|  |  | CC[C@@H](C(=O)Nc1ccc(C(N)=O)c(F)c1)n1cc(OC)c(-c2cc(Cl)ccc2-n2cc(C(F)(F)F)nn2)cc1=O | EC1.5 (Plasma [3]): 0.71 µM; IC50 (Coagulation factor X): 7210 nM; IC50 (Prothrombin): 6270 nM; IC50 (Trypsin): 4050 nM; EC2 (Plasma [4]): >100 µM |
| 23.2 nM | 900 nM | COc1cn(C(Cc2ccccc2)c2cn(-c3cn[nH]c3)nn2)c(=O)cc1-c1cc(Cl)ccc1-n1cc(C(F)(F)F)nn1 (stereo unspecified) | EC1.5 (Plasma [3]): 1.57 µM; EC2 (Plasma [4]): >100 µM |
| 379 nM | 6800 nM | COc1cn(Cc2cn(-c3cccnc3C(=O)O)nn2)c(=O)cc1-c1cc(Cl)ccc1-n1cc(Cl)nn1 |  |
| 272 nM | 11600 nM | COc1cn(Cc2cn(-c3ccccc3C(=O)O)nn2)c(=O)cc1-c1cc(Cl)ccc1-n1cc(Cl)nn1 |  |
| 917 nM | 15800 nM | COc1ccc(-n2cc(Cn3cc(OC)c(-c4cc(Cl)ccc4-n4cc(Cl)nn4)cc3=O)nn2)c(C)n1 |  |

| IC50 (Coagulation factor XI [1]) | IC50 (Plasma kallikrein [2]) | Structure (SMILES) | other results |
| --- | --- | --- | --- |
| 535 nM | 2590 nM | CCC(c1cn(-c2ccccc2)nn1)n1cc(OC)c(-c2cc(Cl)ccc2-n2cc(Cl)nn2)cc1=O (stereo unspecified) |  |
| 1.31 nM | 112 nM | COc1cn(C(Cc2ccccc2)c2cn(-c3ccc(C(=O)O)cc3)nn2)c(=O)cc1-c1cc(Cl)ccc1-n1cc(C(F)(F)F)nn1 (stereo unspecified) | EC1.5 (Plasma [3]): 0.81 µM; IC50 (Coagulation factor X): 41200 nM; IC50 (Prothrombin): 53700 nM; IC50 (Trypsin): 14200 nM; EC2 (Plasma [4]): >100 µM |
| 30.9 nM | 501 nM | COc1cn(C(Cc2ccccc2)c2cn(-c3ccccc3)nn2)c(=O)cc1-c1cc(Cl)ccc1-n1cc(Cl)nn1 (stereo unspecified) |  |
| 1240 nM | 14400 nM | COc1cn(Cc2cn(-c3cccnc3C)nn2)c(=O)cc1-c1cc(Cl)ccc1-n1cc(Cl)nn1 |  |
| 78.1 nM | 766 nM | COc1cn(Cc2cn(-c3ccccc3)nn2)c(=O)cc1-c1cc(Cl)ccc1-n1cc(Cl)nn1 |  |
| 38.3 nM | 643 nM | COC(=O)c1ccc(-n2cc(C(Cc3ccccc3)n3cc(OC)c(-c4cc(Cl)ccc4-n4cc(C(F)(F)F)nn4)cc3=O)nn2)cc1 (stereo unspecified) |  |
| 27 nM | 522 nM | COC(=O)c1ccc(-n2cc(C(Cc3ccccc3)n3cc(OC)c(-c4cc(Cl)ccc4-n4cc(Cl)nn4)cc3=O)nn2)cc1 (stereo unspecified) |  |
| 102 nM | 2750 nM | COc1cn([C@H](Cc2ccccc2)c2cn(-c3ccc(C(=O)O)cc3)nn2)c(=O)cc1-c1cc(Cl)ccc1-n1cc(C(F)(F)F)nn1 | EC1.5 (Plasma [3]): 26.9 µM; IC50 (Coagulation factor X): > 33000 nM; IC50 (Prothrombin): > 33000 nM; IC50 (Trypsin): 88200 nM; EC2 (Plasma [4]): >100 µM |
| 96.3 nM | 1870 nM | COc1cn([C@H](Cc2ccccc2)c2cn(-c3ccc(C(=O)O)cc3)nn2)c(=O)cc1-c1cc(Cl)ccc1-n1cc(Cl)nn1 | EC1.5 (Plasma [3]): 29 µM; IC50 (Coagulation factor X): > 100000 nM; IC50 (Prothrombin): 46900 nM; IC50 (Trypsin): > 100000 nM; EC2 (Plasma [4]): >100 µM |
| 1660 nM | 11500 nM | COC(=O)c1ccccc1-n1cc(Cn2cc(OC)c(-c3cc(Cl)ccc3-n3cc(Cl)nn3)cc2=O)nn1 |  |
| 1330 nM | 8130 nM | CCC(c1cn(-c2cnn(C(F)F)c2)nn1)n1cc(OC)c(-c2cc(Cl)ccc2-n2cc(Cl)nn2)cc1=O (stereo unspecified) |  |
| 373 nM | 1490 nM | CCC(c1cn(-c2ccc(C(=O)OC)cc2)nn1)n1cc(OC)c(-c2cc(Cl)ccc2-n2cc(Cl)nn2)cc1=O (stereo unspecified) |  |
| 78.7 nM | 412 nM | COc1cn(Cc2cn(-c3cccc(C(=O)O)c3)nn2)c(=O)cc1-c1cc(Cl)ccc1-n1cc(Cl)nn1 |  |
| 0.38 nM | 59.2 nM | COc1cn([C@@H](Cc2ccccc2)c2cn(-c3ccc(C(=O)O)cc3)nn2)c(=O)cc1-c1cc(Cl)ccc1-n1cc(C(F)(F)F)nn1 | EC1.5 (Plasma [3]): 0.55 µM; Ratio IC50 (Homo sapiens [5]): > 80000; IC50 (Coagulation factor X): 31600 nM; IC50 (Prothrombin): 51000 nM; IC50 (Trypsin): 16500 nM; Ratio IC50 (Homo sapiens [6]): > 10000; Ratio IC50 (Homo sapiens [7]): > 130000; EC2 (Plasma [4]): >100 µM |
| 1100 nM | 7850 nM | CC[C@H](c1cn(-c2ccc(C(=O)OC)cc2)nn1)n1cc(OC)c(-c2cc(Cl)ccc2-n2cc(Cl)nn2)cc1=O | EC1.5 (Plasma [3]): 392 µM; IC50 (Coagulation factor X): 101000 nM; IC50 (Trypsin): > 100000 nM; EC2 (Plasma [4]): >100 µM |
| 609 nM | 6520 nM | CCC(c1cn(-c2cnn(C)c2)nn1)n1cc(OC)c(-c2cc(Cl)ccc2-n2cc(Cl)nn2)cc1=O (stereo unspecified) |  |
|  |  | CCC(c1ccc2cc(C(=O)O)ccc2c1)n1cc(OC)c(-c2cc(Cl)ccc2-n2cc(C(F)(F)F)nn2)cc1=O (stereo unspecified) | IC50 (Plasma kallikrein [8]): 258 nM; IC50 (Coagulation factor XI [9]): 86.6 nM |
| 2000 nM | 14200 nM | COc1cn(Cc2cn(-c3cc(Br)cnc3C#N)nn2)c(=O)cc1-c1cc(Cl)ccc1-n1cc(Cl)nn1 |  |
| 519 nM | 1060 nM | COC(=O)c1cccc(-n2cc(Cn3cc(OC)c(-c4cc(Cl)ccc4-n4cc(Cl)nn4)cc3=O)nn2)c1 |  |
| 6340 nM | 47200 nM | CCC(c1cn(-c2ccccc2)nn1)n1cnc(-c2cc(Cl)ccc2-n2cc(Cl)nn2)cc1=O (stereo unspecified) |  |
| 32 nM | 643 nM | CC[C@@H](c1cn(-c2ccc(C(=O)OC)cc2)nn1)n1cc(OC)c(-c2cc(Cl)ccc2-n2cc(Cl)nn2)cc1=O | EC1.5 (Plasma [3]): 13.2 µM; IC50 (Coagulation factor X): 4200 nM; IC50 (Prothrombin): 67700 nM; IC50 (Trypsin): 82900 nM; EC2 (Plasma [4]): >100 µM |
| 1600 nM | 2140 nM | CCC(c1cn(-c2cccc(C(=O)OC)c2)nn1)n1cc(OC)c(-c2cc(Cl)ccc2-n2cc(Cl)nn2)cc1=O (stereo unspecified) |  |
